Measured values from the supplement of paper PMC11208160.

Test: recombinant UMI read abundance after kanamycin selection (control-corrected) (log10(CPM+1)); higher = more efficient recombination; extreme values may be limits of the assay; sequences stand for … in AGTGCAGAGAAAATCGGCCAGTTTTCTCTGCCTGCAGTCCGCATGCCGTGGGACCCCTTGGGTTCTAACCTGTTGCCTAGATTTATGCAGCGGACTGCCTTTCTCCCAAAGTGATAAACCGG…AGGTTGGTTTCACT; site = the 11-nt donor
Summary of the method: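 Two replicates each of selected and unselected plating were used in this pooled Escherichia coli screen of donor and donor-binding-loop pairs for the IS621 bridge recombinase. Selection was with IPTG (0.07 mM) and kanamycin. Counts of recombinant UMIs, amplified across the donor–target junction, were converted to CPM, averaged, scaled by control-derived factors and reported as log10(CPM+1).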
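Also: IS621 bridge recombinase in Escherichia coli cells against a fixed T5 target plasmid.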

“CCCTAGCCATGGACCGGTTTTCCCGGTAATCCGTATTTGTC (site CCCTAGCCTGC)” and “CCCTAGCCATGGACCGGTTTTCCCGGTAATCCGTATTTGTC (site CCCTAGCCTGG)” are the same in “recombinant UMI read abundance (log10)” value: 0 for the first, 0 for the second.

“CCCTAGCCATGGACCGGTTTTCCCGGTAATCCGTATTTGTC (site CCCTAGCCTGT)” and “CCCTATTCATGGACCGGTTTTCCCGGTAATCCGTATTTGGA (site CCCTATTCTTC)” are within 0.2 log units of each other in “recombinant UMI read abundance (log10)” value: 0 for the first, 0.0708 for the second.

Going from “CCCTTATCATGGACCGGTTTTCCCGGTAATCCGTATTTGCA (site CCCTTATCTTG)” to “CCCTTATCATGGACCGGTTTTCCCGGTAATCCGTATTTGTC (site CCCATATCTGA)”, the “recombinant UMI read abundance (log10)” value falls from 2.15 to 0.

“CCCTTATCATGGACCGGTTTTCCCGGTAATCCGTATTTGTC (site CCCCTATCTGA)” and “CCCTTATCATGGACCGGTTTTCCCGGTAATCCGTATTTGTC (site CCCGTATCTGA)” are the same in “recombinant UMI read abundance (log10)” value: 0 for the first, 0 for the second.

Compared with “CCCTTATCATGGACCGGTTTTCCCGGTAATCCGTATTTGTC (site CCCTTATCTGA)”, “CCCTTCTCATGGACCGGTTTTCCCGGTAATCCGTATTTGAG (site CCCTTCTCTCA)” is lower in “recombinant UMI read abundance (log10)” value: 0.909 for the first, 0.00351 for the second.

“CCCTTCTCATGGACCGGTTTTCCCGGTAATCCGTATTTGAG (site CCCTTCTCTCC)” and “CCCTTCTCATGGACCGGTTTTCCCGGTAATCCGTATTTGAG (site CCCTTCTCTCG)” are within 0.2 log units of each other in “recombinant UMI read abundance (log10)” value: 0.00506 for the first, 0.01 for the second.

“CCCTTCTCATGGACCGGTTTTCCCGGTAATCCGTATTTGAG (site CCCTTCTCTCT)” and “CCCTTCTCATGGACCGGTTTTCCCGGTAATCCGTATTTGCG (site CCCTTCTCTCA)” are within 0.2 log units of each other in “recombinant UMI read abundance (log10)” value: 0.00554 for the first, 0.02 for the second.

First: CCCTTCTCATGGACCGGTTTTCCCGGTAATCCGTATTTGCG (site CCCTTCTCTCC)
Second: CCCTTCTCATGGACCGGTTTTCCCGGTAATCCGTATTTGCG (site CCCTTCTCTCG)
The “recombinant UMI read abundance (log10)” value of the first is lower: 0.195 for the first, 1.08 for the second.

“CCCTTCTCATGGACCGGTTTTCCCGGTAATCCGTATTTGCG (site CCCTTCTCTCT)” and “CCCTTCTCATGGACCGGTTTTCCCGGTAATCCGTATTTGGA (site CCCTTCTCTAC)” are within 0.2 log units of each other in “recombinant UMI read abundance (log10)” value: 0.061 for the first, 0 for the second.

“CCCTTCTCATGGACCGGTTTTCCCGGTAATCCGTATTTGGA (site CCCTTCTCTCC)” and “CCCTTCTCATGGACCGGTTTTCCCGGTAATCCGTATTTGGA (site CCCTTCTCTGC)” are within 0.2 log units of each other in “recombinant UMI read abundance (log10)” value: 0.0081 for the first, 0 for the second.

Compared with “CCCTTCTCATGGACCGGTTTTCCCGGTAATCCGTATTTGGA (site CCCTTCTCTTC)”, “CCCTTGCCATGGACCGGTTTTCCCGGTAATCCGTATTTGCC (site CCCTAGCCTGG)” is lower in “recombinant UMI read abundance (log10)” value: 0.21 for the first, 0 for the second.

“CCCTTGCCATGGACCGGTTTTCCCGGTAATCCGTATTTGCC (site CCCTCGCCTGG)” and “CCCTTGCCATGGACCGGTTTTCCCGGTAATCCGTATTTGCC (site CCCTGGCCTGG)” are the same in “recombinant UMI read abundance (log10)” value: 0 for the first, 0 for the second.

Compared with “CCCTTGCCATGGACCGGTTTTCCCGGTAATCCGTATTTGCC (site CCCTTGCCTGG)”, “CCCTTGTCATGGACCGGTTTTCCCGGTAATCCGTATTTGGG (site CCCTTATCTCC)” is higher in “recombinant UMI read abundance (log10)” value: 0 for the first, 0.393 for the second.

First: CCCTTGTCATGGACCGGTTTTCCCGGTAATCCGTATTTGGG (site CCCTTCTCTCC)
Second: CCCTTGTCATGGACCGGTTTTCCCGGTAATCCGTATTTGGG (site CCCTTGTCTCC)
The “recombinant UMI read abundance (log10)” value of the first is lower: 0.00922 for the first, 0.297 for the second.

“CCCTTGTCATGGACCGGTTTTCCCGGTAATCCGTATTTGGG (site CCCTTTTCTCC)” and “CCCTTTACATGGACCGGTTTTCCCGGTAATCCGTATTTGCT (site CCATTTACTAG)” are within 0.2 log units of each other in “recombinant UMI read abundance (log10)” value: 0.0116 for the first, 0 for the second.

Compared with “CCCTTTACATGGACCGGTTTTCCCGGTAATCCGTATTTGCT (site CCCTTTACTAG)”, “CCCTTTACATGGACCGGTTTTCCCGGTAATCCGTATTTGCT (site CCGTTTACTAG)” is lower in “recombinant UMI read abundance (log10)” value: 1.76 for the first, 0 for the second.

“CCCTTTACATGGACCGGTTTTCCCGGTAATCCGTATTTGCT (site CCTTTTACTAG)” and “CCGAAACCATGGACCGGTTTTCCCGGTAATCCGTATTTGTT (site CCGAAACCTAA)” are the same in “recombinant UMI read abundance (log10)” value: 0 for the first, 0 for the second.

Compared with “CCGAAACCATGGACCGGTTTTCCCGGTAATCCGTATTTGTT (site CGGAATCCTAA)”, “CCGAAGGCATGGACCGGTTTTCCCGGTAATCCGTATTTGTG (site CCGAAGGCTCA)” is higher in “recombinant UMI read abundance (log10)” value: 0.00312 for the first, 0.495 for the second.

“CCGAATACATGGACCGGTTTTCCCGGTAATCCGTATTTGGC (site CCAAATACTGC)” and “CCGAATACATGGACCGGTTTTCCCGGTAATCCGTATTTGGC (site CCCAATACTGC)” are the same in “recombinant UMI read abundance (log10)” value: 0 for the first, 0 for the second.

“CCGAATACATGGACCGGTTTTCCCGGTAATCCGTATTTGGC (site CCGAATACTGC)” and “CCGAATACATGGACCGGTTTTCCCGGTAATCCGTATTTGGC (site CCTAATACTGC)” are the same in “recombinant UMI read abundance (log10)” value: 0 for the first, 0 for the second.

Going from “CCGACATCATGGACCGGTTTTCCCGGTAATCCGTATTTGCT (site CAGACATCTAG)” to “CCGACATCATGGACCGGTTTTCCCGGTAATCCGTATTTGCT (site CCGACATCTAG)”, the “recombinant UMI read abundance (log10)” value rises from 0 to 0.421.

“CCGACATCATGGACCGGTTTTCCCGGTAATCCGTATTTGCT (site CGGACATCTAG)” and “CCGACATCATGGACCGGTTTTCCCGGTAATCCGTATTTGCT (site CTGACATCTAG)” are the same in “recombinant UMI read abundance (log10)” value: 0 for the first, 0 for the second.

“CCGACCTCATGGACCGGTTTTCCCGGTAATCCGTATTTGGT (site CCGACCTCTAC)” and “CCGATATCATGGACCGGTTTTCCCGGTAATCCGTATTTGTC (site CCAATATCTGA)” are within 0.2 log units of each other in “recombinant UMI read abundance (log10)” value: 0.121 for the first, 0 for the second.

Compared with “CCGATATCATGGACCGGTTTTCCCGGTAATCCGTATTTGTC (site CCCATATCTGA)”, “CCGATATCATGGACCGGTTTTCCCGGTAATCCGTATTTGTC (site CCGATATCTGA)” is higher in “recombinant UMI read abundance (log10)” value: 0 for the first, 1.21 for the second.

“CCGATATCATGGACCGGTTTTCCCGGTAATCCGTATTTGTC (site CCTATATCTGA)” and “CCGATGCCATGGACCGGTTTTCCCGGTAATCCGTATTTGGA (site CCGATGCCTTC)” are within 0.2 log units of each other in “recombinant UMI read abundance (log10)” value: 0 for the first, 0.0103 for the second.

“CCGATTCCATGGACCGGTTTTCCCGGTAATCCGTATTTGTT (site CCGATTCCTAA)” and “CCGATTCCATGGACCGGTTTTCCCGGTAATCCGTATTTGTT (site CGGAATCCTAA)” are within 0.2 log units of each other in “recombinant UMI read abundance (log10)” value: 0 for the first, 0.00507 for the second.

First: CCGCAGTCATGGACCGGTTTTCCCGGTAATCCGTATTTGGC (site CCGCAGTCTGC)
Second: CCGCATACATGGACCGGTTTTCCCGGTAATCCGTATTTGTT (site CCGCATACTAA)
The “recombinant UMI read abundance (log10)” value of the first is lower: 0 for the first, 0.39 for the second.

First: CCGGAAGCATGGACCGGTTTTCCCGGTAATCCGTATTTGAC (site CCGGAAGCTGT)
Second: CCGGTAGCATGGACCGGTTTTCCCGGTAATCCGTATTTGAC (site CCGGTAGCTGT)
The “recombinant UMI read abundance (log10)” value of the first is lower: 0.161 for the first, 2.38 for the second.

First: CCGGTATCATGGACCGGTTTTCCCGGTAATCCGTATTTGAC (site CCGGTATCTGT)
Second: CCGGTATCATGGACCGGTTTTCCCGGTAATCCGTATTTGAC (site CTAGTATCTGT)
The “recombinant UMI read abundance (log10)” value of the first is higher: 1.45 for the first, 0 for the second.

Compared with “CCGGTGGCATGGACCGGTTTTCCCGGTAATCCGTATTTGAC (site CCGGTGGCTGT)”, “CCGTCAGCATGGACCGGTTTTCCCGGTAATCCGTATTTGTG (site CCGTAAGCTCA)” is lower in “recombinant UMI read abundance (log10)” value: 1.58 for the first, 0 for the second.

“CCGTCAGCATGGACCGGTTTTCCCGGTAATCCGTATTTGTG (site CCGTCAGCTCA)” and “CCGTCAGCATGGACCGGTTTTCCCGGTAATCCGTATTTGTG (site CCGTGAGCTCA)” are within 0.2 log units of each other in “recombinant UMI read abundance (log10)” value: 0.00531 for the first, 0.00599 for the second.

“CCGTCAGCATGGACCGGTTTTCCCGGTAATCCGTATTTGTG (site CCGTTAGCTCA)” and “CCGTCATCATGGACCGGTTTTCCCGGTAATCCGTATTTGCT (site CCGTCATCTAG)” are within 0.2 log units of each other in “recombinant UMI read abundance (log10)” value: 0.00541 for the first, 0 for the second.

“CCGTCATCATGGACCGGTTTTCCCGGTAATCCGTATTTGCT (site CGATCATCTAG)” and “CCGTCGCCATGGACCGGTTTTCCCGGTAATCCGTATTTGAT (site CCGTCGCCTAT)” are within 0.2 log units of each other in “recombinant UMI read abundance (log10)” value: 0.00968 for the first, 0.00407 for the second.

“CCGTCGGCATGGACCGGTTTTCCCGGTAATCCGTATTTGTG (site CCGTCGGCTCA)” and “CCGTGAGCATGGACCGGTTTTCCCGGTAATCCGTATTTGTG (site CCGTAAGCTCA)” are within 0.2 log units of each other in “recombinant UMI read abundance (log10)” value: 0.0197 for the first, 0.0763 for the second.

Going from “CCGTGAGCATGGACCGGTTTTCCCGGTAATCCGTATTTGTG (site CCGTCAGCTCA)” to “CCGTGAGCATGGACCGGTTTTCCCGGTAATCCGTATTTGTG (site CCGTGAGCTCA)”, the “recombinant UMI read abundance (log10)” value rises from 0 to 0.568.

“CCGTGAGCATGGACCGGTTTTCCCGGTAATCCGTATTTGTG (site CCGTTAGCTCA)” and “CCGTTAGCATGGACCGGTTTTCCCGGTAATCCGTATTTGTG (site ACGTTAGCTCA)” are within 0.2 log units of each other in “recombinant UMI read abundance (log10)” value: 0.00536 for the first, 0.0114 for the second.

Compared with “CCGTTAGCATGGACCGGTTTTCCCGGTAATCCGTATTTGTG (site CAGTTAGCTCA)”, “CCGTTAGCATGGACCGGTTTTCCCGGTAATCCGTATTTGTG (site CCATTAGCTCA)” is higher in “recombinant UMI read abundance (log10)” value: 0.00951 for the first, 0.434 for the second.

With “CCGTTAGCATGGACCGGTTTTCCCGGTAATCCGTATTTGTG (site CCCTTAGCTCA)” the “recombinant UMI read abundance (log10)” value was 0.0161.
